Peptide text beside a SMILES is read from it.
Tested on: K. pneumoniae 1825971
Assay: Antibiofilm assay
Format: cell-based, Klebsiella pneumoniae
Description: Overnight cultures of microorganisms [E. coli 0157, methicillin-resistant S. aureus (MRSA), K. pneumoniae 1825971, or C. albicans clinical isolate obtained from a blood culture maintained at LACEN (Laboratório Central de Saúde do Distrito Federal, a Brazilian reference laboratory for clinical isolates in Brasília, Brazil)] grown in LB broth (BD Difco) were diluted 1 in 100 in LB and Todd-Hewitt broth (BD Difco) or BM2 minimal medium [62 mM potassium phosphate buffer, pH 7.0, 7 mM (NH4)2SO4, 2 mM MgSO4, 10 μM FeSO4, 0.5% glucose], and 100 μL per well was added into 96-well round-bottom microplates. Absorbance at 600 nm was used to assess the planktonic cell growth. Non-adherent planktonic cells were removed from microtiter wells and washed twice with deionized water. Adherent cells were stained with 0.1% crystal violet for 20 min. The microplate wells were washed twice with deionized water, air dried, and solubilized with 110 μL of 70% ethanol. […] Biofilm formation was assessed by measuring the absorbance at 600 nm using a microplate reader (Bio-Tek Instruments, Inc., USA). The microdilution method for cationic peptides was used to determine the MIC for planktonic cells. Three biological replicates were performed for each experiment involving eight technical replicates.

For `CC[C@H](C)[C@H](NC(=O)[C@H](CCCNC(=N)N)NC(=O)[C@H](Cc1ccc(O)cc1)NC(=O)CNC(=O)[C@H](Cc1ccc(O)cc1)NC(=O)[C@H](CCCNC(=N)N)NC(=O)[C@H](CC(C)C)NC(=O)[C@H](C)NC(=O)[C@H](CCC(N)=O)NC(=O)[C@H](CCC(=O)O)NC(=O)[C@@H](NC(=O)[C@H](CCC(N)=O)NC(=O)[C@H](CCCNC(=N)N)NC(=O)[C@H](CCSC)NC(=O)[C@H](Cc1ccc(O)cc1)NC(=O)[C@H](CCC(N)=O)NC(=O)[C@@H](N)CCCNC(=N)N)[C@@H](C)CC)C(=O)N[C@@H](CO)C(=O)N[C@@H](CCCNC(=N)N)C(=O)N[C@@H](CCCNC(=N)N)C(N)=O` [Guavanin 2] (H-RQYMRQIEQALRYGYRISRR-NH2), the antibiofilm activity was “only able to reduce C. albicans biofilms”.

Source: publication PMC5902452, “In silico optimization of a guava antimicrobial peptide enables combinatorial exploration for peptide design” (Nature Communications, 2018)
